Data set [1] relates to E. coli R2 (ATCC 39544). Description: MIC and MBC, microtiter plate technique. To be noted: Escherichia coli. It is filed as cell-based.
Data set [2] concerns E. coli R3 (ATCC 11775). The data set can be described thus: MIC and MBC, microtiter plate technique. It is filed as cell-based. To be noted: Escherichia coli.
For data set [3], the target named is T1, mushroom tyrosinase (mTYR) (Agaricus bisporus, UniProt C7FF04).
T1 construct: purchased Sigma-Aldrich (Poznan, Poland); host or cells: Agaricus bisporus (extracted natural enzyme)
The data set can be described thus: Tyrosinase assay with L-DOPA as substrate (absorbance at 475 nm). It is filed as biochemical. To be noted: 100 µM compound. An excerpt: Tyrosinase (Tyr) extracted from Agaricus bisporus (mushroom tyrosinase, mTYR) is commonly used as a model enzyme for human Tyr due to its high purity, stability, and commercial availability. It is frequently used in the selection of TYR inhibitors. Following established literature protocols, L-tyrosine and L-DOPA, which serve as substrates for monophenol and diphenol oxidation, respectively, were used to assess the tyrosinase inhibitory activity of synthesized target compounds [21].
Tyrosinase (Tyr) activity was measured using L-DOPA as substrate and phosphate buffer solution (PBS) as blank control, following the method described by Min He et al. (2022) with an ultraviolet spectrophotometer (Carry-300, Agilent Life Sciences and Chemical Analysis, Santa Clara, CA, USA). […] Before the experiment, 2.9 mL of PBS and 0.1 mL of DMSO were used to account for the influence of the background solvent. The inhibitor solution (100 µL), substrate solution (2.8 mL), and Tyr solution (100 µL) were then added to a quartz colorimetric cuvette. After a one-minute mixing period, the absorption spectra of the mixture were continuously recorded at 475 nm using the UV spectrophotometer (Carry-300) for 5 min over a period of every 30 s. The tyrosinase inhibition rate was calculated as follows:Relative enzyme activity (%) = (A1 − A2)/A1 × 100
A1 = Absorbance of L-DOPA and inhibitor.
A2 = Absorbance of L-DOPA, inhibitor, and tyrosinase.

The nature of data set [4]: MTT cytotoxicity assay. To be noted: mouse, BALB/c3T3 mouse embryonic fibroblast cells; 24 h of incubation; (±0.14); read-out: half maximum inhibitory concentration (IC50), cytotoxicity. It is filed as cell-based. The protocol:
Following the completion of MIC and MBC assays on the analyzed bacterial strains, and subsequent treatment with Fpg protein modified by peptidomimetics along with selected antibiotics, a further MTT assay was conducted to evaluate the cytotoxicity of the compounds employing the BALB/c3T3 mouse embryonic fibroblast cell line (Figure 10).
BALB/c3T3 mouse embryonic fibroblast cells were exposed to peptidomimetics across concentrations ranging from 0.5 µM to 3.5 µM and incubated for a duration of 24 h. […] The highest concentrations (2.5 µM and 3.5 µM) inhibited cell viability, which was reduced to 20.2% and 1.0%, respectively (Figure 10 and Figure S40 in the Supplementary Materials).
The cytotoxic effects of aldehyde 1 and peptidomimetics 5a–r on BALB/c3T3 mouse fibroblast cells were assessed utilizing the MTT assay following a 24 h incubation period across five different concentrations (0.5, 1.0, 1.5, 2.5, and 3.5 µM). The MTT assay is predicated upon the capacity of mitochondrial dehydrogenase enzymes to convert the water-soluble tetrazolium salt, 3-([…])-2,5-diphenyltetrazolium bromide (MTT), into an insoluble formazan product, manifesting as dark blue crystals. These formazan crystals are then dissolved in DMSO or isopropanol, forming a colored solution whose intensity is measured spectrophotometrically within the wavelength range of 492–570 nm. The amount of MTT reduced corresponds to the oxidative activity of the mitochondria, which is directly proportional to the number of metabolically active cells in the population under defined experimental conditions. The MTT assay can also be used to assess cell viability in non-dividing metabolically active cells. It is one of the most widely used methods to assess cytotoxic activity and is recommended by international standards organizations as a reference method.
(Formazan colour is commonly taken as a measure of viable cells.)

The test system of data set [5] is P. aeruginosa (ATCC 15442). Description: MIC and MBC, microtiter plate technique. The data set is classed as cell-based. The conditions noted are these: ATCC15442, Pseudomonas aeruginosa.
The subject of data set [6] is E. coli K12 (ATCC 25404). Description: MIC and MBC, microtiter plate technique. It is filed as cell-based. To be noted: Escherichia coli.
Data set [7] has as its system A. baumannii (ATCC 17978). The data set can be described thus: MIC and MBC, microtiter plate technique. It is filed as cell-based. To be noted: ATCC17978, Acinetobacter baumannii.
In data set [8] the test system is E. coli R4 (ATCC 39543). The data set can be described thus: MIC and MBC, microtiter plate technique. To be noted: Escherichia coli. It is filed as cell-based.
Data set [9] has as its system E. cloacae (ATCC 49141). Description: MIC and MBC, microtiter plate technique. The data set is classed as cell-based. To be noted: ATCC49141, Enterobacter cloacae.
The subject of data set [10] is S. aureus (ATCC 23235). The data set can be described thus: microbe, parasite or virus in culture. The data set is classed as cell-based. The conditions noted are these: Staphylococcus aureus.
Data set [11] relates to E. coli, A. baumannii, P. aeruginosa, E. cloacae, and S. aureus. Description: MIC and MBC over all model bacterial strains (summary statements). The conditions noted are these: Gram-positive and Gram-negative bacteria. It is filed as cell-based.

≈ marks a conversion by molar mass, not a printed value. Some results are limits rather than exact numbers.

We go through one compound from PMC11855086, “Synthesis, Antimicrobial Activity, and Tyrosinase Inhibition by Multifunctional 3,4-Dihydroxy-Phenyl Peptidomimetics” (International Journal of Molecular Sciences, 2025).

T1 sequence (C7FF04 1-392 limits assumed): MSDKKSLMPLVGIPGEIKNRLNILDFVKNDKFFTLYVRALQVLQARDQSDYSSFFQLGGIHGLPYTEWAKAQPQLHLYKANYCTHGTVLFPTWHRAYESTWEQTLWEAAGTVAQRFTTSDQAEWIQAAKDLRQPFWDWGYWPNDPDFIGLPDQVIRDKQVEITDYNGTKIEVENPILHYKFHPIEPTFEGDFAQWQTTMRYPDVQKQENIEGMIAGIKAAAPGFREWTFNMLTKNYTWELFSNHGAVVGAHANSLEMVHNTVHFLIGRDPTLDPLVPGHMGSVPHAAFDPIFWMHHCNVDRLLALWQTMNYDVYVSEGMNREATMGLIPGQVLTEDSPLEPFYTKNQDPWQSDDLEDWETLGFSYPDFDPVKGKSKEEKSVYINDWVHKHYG

For `COc1ccc(CN(C(=O)Cc2ccccc2)C(C(=O)NCc2ccccc2)c2ccc(O)c(O)c2)cc1` (stereo not shown) [Compound 5a, N-benzyl-2-(3,4-dihydroxyphenyl)-2-(N-(4-methoxybenzyl)-2-phenylacetamido)-acetamide], the MBC in data set [1] (ATCC39544) amounted to 0.62 µM (≈ 0.317 µg/mL); in [2] (ATCC11775, TTC), 0.84 µM (≈ 0.429 µg/mL); in data set [5] (TTC) it was 0.66 µM (≈ 0.337 µg/mL); in data set [6] (ATCC25404), 0.32 µM (≈ 0.163 µg/mL); in data set [7] (TTC), 0.68 µM (≈ 0.347 µg/mL); in data set [8] (ATCC39543), 1.15 µM (≈ 0.587 µg/mL). For the same compound, the MBC was determined as 0.62 µM (≈ 0.317 µg/mL) in data set [9] (TTC) and 0.68 µM (≈ 0.347 µg/mL) in data set [10] (ATCC23235). Also, the MIC was determined as 0.59 µM (≈ 0.301 µg/mL) in data set [1] (ATCC39544, 24 h); 0.66 µM (≈ 0.337 µg/mL) in data set [2] (ATCC11775, 24 h, resazurin); 0.62 µM (≈ 0.317 µg/mL) in data set [5] (24 h, resazurin); 0.3 µM (≈ 0.153 µg/mL) in data set [6] (ATCC25404, 24 h); 0.63 µM (≈ 0.322 µg/mL) in [7] (24 h, resazurin); 0.88 µM (≈ 0.449 µg/mL) in [8] (ATCC39543, 24 h). Moreover, the MIC in data set [9] (24 h, resazurin) stood at 0.58 µM (≈ 0.296 µg/mL); in data set [10] (ATCC23235, 24 h), 0.65 µM (≈ 0.332 µg/mL). The inhibition at 100 µM in [3] was < 10%. Moreover, the IC50 at 24 h in [4] was determined as 1610 nM. Further, the “antibacterial spectrum” value in [11] is on record as “broad-spectrum activity”.

Usually inhibition stands for the share of the control response that was lost under treatment.
